What was measured:
[1] = Plasma leuprolide pharmacokinetics after IV, SQ and intranasal (IN) administration, five-way crossover volunteer trial, ELISA; set-up: Absolute bioavailability, % of IV: dose or concentration left out as unconfirmed; details: human, in vivo; for bioavailability / AUC / Cmax: female
Description: In the following example, the inventors sought to compare the intranasal (“IN”) administration of leuprolide using the methods and compositions of the invention with prior art methods of administration (subcutaneous (“SQ”) and intravenous (“IV”)).

[2] = human, in vivo
Description: The design of the experiment was a five-way, crossover, randomized, partially double-blind, volunteer trial. Women were given leuprolide 1 mg IV and SQ, and IN as novel formulation at 1 mg (one spray), 2 mg (one spray) and 6 mg (three sprays), in random order. There was one dosing regimen on each of five separate days, with each day separated by at least two washout days. Blood for leuprolide measurement was collected via indwelling catheter at baseline and on eighteen occasions, up to twenty four hours after dosing. Plasma was separated and the leuprolide concentrations determined by enzyme linked immunosorbant assays (ELISA). Throughout the study subjects were monitored for adverse events and given nasal examinations.

## CC(=O)O.CCNC(=O)[C@@H]1CCCN1C(=O)[C@H](CCCNC(=N)N)NC(=O)[C@H](CC(C)C)NC(=O)[C@@H](CC(C)C)NC(=O)[C@H](Cc1ccc(O)cc1)NC(=O)[C@H](CO)NC(=O)[C@H](Cc1c[nH]c2ccccc12)NC(=O)[C@H](Cc1c[nH]cn1)NC(=O)[C@@H]1CCC(=O)N1 [leuprolide, 5-oxo-L-prolyl-L-histidyl-L-tryptophyl-L-seryl-L-tyrosyl-D-leucyl-L-leucyl-L-arginyl-N-ethyl-L-prolinamide acetate salt]
[1]
  bioavailability: 95 ± 17%
  Absolute bioavailability, % of IV: 8 ± 3 % of IV
[1]; inhaled or intranasal, 1 mg
  AUC: 15 ± 8 ng·h/mL
  Cmax: 5 ± 3 ng/mL
  bioavailability: 13 ± 7%
[1]; inhaled or intranasal, 2 mg
  AUC: 31 ± 16 ng·h/mL
  Cmax: 11 ± 6 ng/mL
  bioavailability: 14 ± 7%
[1]; inhaled or intranasal, 6 mg
  AUC: 56 ± 28 ng·h/mL
  Cmax: 22 ± 11 ng/mL
[1]; iv, 1 mg
  AUC: 120 ± 25 ng·h/mL
  Cmax: 85 ± 33 ng/mL
[1]; sc, 1 mg
  AUC: 111 ± 21 ng·h/mL
  Cmax: 35 ± 8 ng/mL
[1]; iv
  Absolute bioavailability, % of IV: 100 % of IV
[2]
  Adverse events noted: rhinorrhea and altered taste sensation
  Serious adverse events: No serious adverse events were reported

Source: US20040248804A1, “Nasal administration of the LH-RH analog Leuprolide” (priority 2003, published 2004)
